What was measured:
[1] = biological target: T1, reverse transcriptase from BLV (Bovine leukemia virus, UniProt P03361); experiment: Cell-free reverse transcriptase inhibition, BLV; format: biochemical; conditions: template/primer (rA)n.(dT)10, read-out: Percent inhibition
T1 construct: Reverse transcriptase from various retroviruses have been tested in cell-free assays; made in house
Method: (§1) Reverse transcriptase from various retroviruses have been tested in cell-free assays for inhibition by phosphonoformic acid and phosphonoacetic acid. The assay conditions have been described by Collaborative Research, Inc, 1365 Main Street, Waltham, Mass., USA "Assay kit for mammalian viral reverse transcriptase". BLV and VV were prepared in this laboratory and all other viruses and viral enzyme were obtained from Dr. K Nilsson, Department of Pathology, University of Uppsala and from Boehringer Mannheim, Germany. Phosphonoformic acid (PFA) and phosphonoacetic acid (PAA) were added at pH 7.2 to the reaction mixtures at the start of the reaction.
(§2) Rauscher murine leukemia virus; RMuLV, visna virus; VV, avian myeloblastosis virus; AMV, bovine leukemia virus; BLV, baboon endogenous virus; BaEV, simian sarcoma virus; SSV.

[2] = biological target: T2, reverse transcriptase from VV (Maedi visna virus, UniProt P03370); experiment: Cell-free reverse transcriptase inhibition, VV; format: biochemical; conditions: template/primer (rA)n.(dT)10, read-out: Percent inhibition
T2 construct: Reverse transcriptase from various retroviruses have been tested in cell-free assays; made in house
T2 sequence (P03370 541-1111): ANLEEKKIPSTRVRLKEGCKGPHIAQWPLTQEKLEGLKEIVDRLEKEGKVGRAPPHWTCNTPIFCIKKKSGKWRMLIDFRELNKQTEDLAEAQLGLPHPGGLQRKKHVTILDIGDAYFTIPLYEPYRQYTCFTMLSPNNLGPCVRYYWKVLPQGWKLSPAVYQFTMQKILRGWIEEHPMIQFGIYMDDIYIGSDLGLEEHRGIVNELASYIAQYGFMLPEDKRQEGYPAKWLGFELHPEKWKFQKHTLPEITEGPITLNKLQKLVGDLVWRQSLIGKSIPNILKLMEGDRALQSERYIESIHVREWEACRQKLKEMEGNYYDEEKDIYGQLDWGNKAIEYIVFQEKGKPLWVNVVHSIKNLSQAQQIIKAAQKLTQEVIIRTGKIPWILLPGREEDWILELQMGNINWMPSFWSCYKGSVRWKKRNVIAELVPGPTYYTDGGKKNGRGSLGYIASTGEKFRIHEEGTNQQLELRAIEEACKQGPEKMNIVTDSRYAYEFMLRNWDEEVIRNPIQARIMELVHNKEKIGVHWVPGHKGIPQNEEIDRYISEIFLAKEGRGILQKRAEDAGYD
Method: as §1, §2

[3] = system: Ehrlich ascites tumors (Friend virus); experiment: Survival of NMRI mice bearing Ehrlich ascites tumors; format: in vivo; conditions: 100 mg/kg per day ip, 2% solution pH 7.2; versus 0.95% NaCl control; FIG. 2
Method: The inhibition of reverse transcriptase by phosphonoformic acid (PFA) has prompted an investigation of the effect of PFA on animals with tumors where retroviruses are implicated. Ehrlich ascites tumors (Friend virus) in NMRI mice and YBA solid tumors (Moloney virus) in CBA mice have been used.
NMRI mice were inoculated intraperitoneally with 0.1 ml of a 1/10 dilution of ascitic fluid from a mouse with an Ehrlich ascites tumor. Nine mice were given intraperitoneally 100 mg/kg of PFA per day as a 2% solution at pH 7.2, and 9 mice were treated with 0.95% NaCl ip. CBA mice were inoculated with 7×10^6 cells subcutaneously in the flank. Fifteen CBA mice were given 0.5% PFA at pH 7.2 in the drinking water and fifteen water without addition.

[4] = system: reverse transcriptase from AMV; experiment: Cell-free reverse transcriptase inhibition, AMV; format: biochemical, avian myeloblastosis virus
Method: as §1, §2

[5] = system: type B influenza virion-associated RNA polymerase; experiment: Inhibition of type B influenza virion-associated RNA polymerase; format: biochemical, influenza B Hongkong 8/73; conditions: 500 μM; GTP 135 μM
Method: Polymerases, nucleic acid template nucleoside triphosphates, of which guanosine triphosphate is tritium-labelled, salt and buffer are mixed at 0° C. in a total volume of 125 μl (for herpes DNA polymerase, see F. below). The concentrations of the nucleoside triphosphates UTP (uridine triphosphate), CTP (cytidinetriphosphate), GTP (guanosinetriphosphate) and ATP (adenosinetriphosphate) were generall 400, 400, 400, and 2000 μM, respectively. The test compound is also added in various concentrations to the mixture obtained. A standard mixture without test compound is also prepared using the same amounts of the ingredients. The enzyme reaction, i.e. synthesis of nucleic acid, is started by incubating the mixture at 37° C. For influenza RNA polymerases the temperature is 33° C. The reaction is allowed to proceed for 60 minutes in the assay of influenza and Micrococcus polymerases. […] The incorporation of labelled monomer into trichloroacetic acid insoluble nucleic acid product was measured in the following way. […] After drying the discs are measured for radioactivity in a liquid scintillation counter. The difference in radioactivity between samples with and without added compound is used to calculate the inhibition of the polymerase activity. The inhibition is expressed as percentage inhibition using the radioactivity of the standard sample as basis. […]

cutaneous herpes type 1 = conditions: trisodium salt in topical preparations according to examples 15, 16 and 17; preliminary experiments
[6] = system: herpes simplex type 2 patient isolates; experiment: Herpes simplex type 2 plaque reduction assay on SIRC monolayers; format: cell-based; conditions: Human alphaherpesvirus 2
Method: The inhibition of influenza virus and herpes virus by phosphonoformic acid has been measured as plaque reaction according to the following procedures.
The plaque reduction assay for herpes simplex type 1 was performed on GMK (Green Monkey Kidney) cells as described by Ejereito et el., J. Gen. Virol. 2 (1968) 357. Monolayers on 5 cm petri dishes were used and after virus adsorption phosphonoformic acid was added in the medium.
I. Inhibition by phosphonoformic acid of herpes simplex type 2 plaque
The plaque reduction assay for herpes simplex type 2 was performed in the same way as in experiment H. The results are shown in Table 9.

[7] = set-up: species or system Cynomolgus monkeys; conditions: cynomolgus monkey, in vivo
Method: Phosphonoformic acid, also denoted PFA and phosphonoacetic acid, also denoted PAA were used in the form of their trisodium and disodium salt, respectively. The following equimolar compositions of the two test compounds were used: […]
Two adult male Cynomolgus monkeys were treated once daily for 7 days with PFA or PAA in Arlatone cream. Treatment was done both by topical application of 0.2 ml cream on an area of 3×7 cm on the upper part of the arms and by application of 0.2 ml of cream on the penis and the adjacent skin. During application of cream, the animals were lightly anaesthetized with Ketalar®, given intramuscularly. All applications were 0.2 ml each on day 6/3, 7/3, 8/3, 9/3, 10/3, 11/3 and 12/3 1978.

T1 sequence (P03361 546-1120): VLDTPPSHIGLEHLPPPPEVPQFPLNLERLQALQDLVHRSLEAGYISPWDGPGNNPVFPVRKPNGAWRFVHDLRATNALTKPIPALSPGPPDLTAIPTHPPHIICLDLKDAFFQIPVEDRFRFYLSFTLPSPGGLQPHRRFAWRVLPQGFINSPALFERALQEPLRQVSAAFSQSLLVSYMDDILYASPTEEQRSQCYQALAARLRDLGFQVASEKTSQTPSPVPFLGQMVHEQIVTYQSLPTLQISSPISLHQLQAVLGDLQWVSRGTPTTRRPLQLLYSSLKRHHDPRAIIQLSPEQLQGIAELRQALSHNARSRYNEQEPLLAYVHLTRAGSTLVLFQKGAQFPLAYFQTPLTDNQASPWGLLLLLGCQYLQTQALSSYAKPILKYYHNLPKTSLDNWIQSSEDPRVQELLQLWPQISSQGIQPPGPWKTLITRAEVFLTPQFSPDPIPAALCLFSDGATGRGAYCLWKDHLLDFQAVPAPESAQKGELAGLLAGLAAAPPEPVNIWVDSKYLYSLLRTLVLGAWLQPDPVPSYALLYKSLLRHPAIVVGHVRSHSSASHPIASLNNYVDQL

**Q.** Which results are given for `O=C(O)P(=O)(O)O` [phosphonoformic acid]?
**A.** inhibition at 100 µM ([1]; 100 μM): 88%; inhibition at 500 µM ([1]; 500 μM): 93%; inhibition at 100 µM ([2]; 100 μM): 95%; inhibition at 500 µM ([2]; 500 μM): 99%; survival of mice inoculated with Ehrlich ascites cells [3]: increased survival; Percent inhibition ([4]; 10 μM, endogenous template): 15%; Percent inhibition ([4]; 10 μM, purified enzyme, (rA)n.(dT)10): 45%; Percent inhibition ([4]; 10 μM, template/primer (rA)n.(dT)10): 43%; Percent inhibition ([4]; 100 μM, endogenous template): 49%; Percent inhibition ([4]; 100 μM, purified enzyme, (rA)n.(dT)10): 96%; Percent inhibition ([4]; 100 μM, template/primer (rA)n.(dT)10): 94%; Percent inhibition ([4]; 500 μM, endogenous template): 70%; Percent inhibition ([4]; 500 μM, purified enzyme, (rA)n.(dT)10): > 99%; Percent inhibition ([4]; 500 μM, template/primer (rA)n.(dT)10): 99%; Inhibition [5]: 100%; therapeutic effect (cutaneous herpes type 1): has a therapeutic effect; inhibition at 500 µM [6]: 99.9%; Result (skin irritation), area of application penis [7]: No symptoms; Result (skin irritation), area of application upper arm [7]: No symptoms

Source: US4771041A, “Method for combating virus infection” (priority 1976, dated 1988)
